In one experiment the test system is ModeK cells. Nature of the experiment: Autophagy western blot in ModeK cells. It is filed as cell-based, mouse. The conditions noted are these: 10 μM, 20 μM and 50 NM, eight hours. How it is done: The ability of urolithins to induce autophagy in mammalian cells was also examined. ModeK cells derived from intestine, were cultured in RPMI 1640 medium including 4.5 g/L glucose, 10% fetal calf serum, 1 mM Sodium Pyruvate, 10 mM HEPES, 0.1 mM NEAA, 2-Mercaptoethanol Penicillin 100 UI/mL and Streptomycin 100 μg/mL. Cells were cultured at 37° C. under a 5% CO2 atmosphere. Cells were treated with increasing concentrations of urolithin A (10 μM, 20 μM and […]). Treatment was performed for eight hours, after which cells were lysed and prepared for Western Blot analysis. Protein expression levels were examined for autophagy related proteins LC3-I and II (Cell Signaling antibody #4108), p62 (Cell Signalling antibody #5114), AMPKα (Cell Signaling antibody #2603), and p-AMPKα(Cell Signaling antibody #2531). The housekeeping protein, HSP90 (BD Transduction Laboratories antibody #610418) level was measured as a loading control.

Experiment [1] deals with C. elegans fed vps-34 RNAi. The experiment can be described thus: Lifespan with RNAi against vps-34. It is filed as in vivo. The conditions noted are these: 50 μM; vs empty vector; FIG. 10B. How it is done: Lifespan tests were performed as described. Mouchiroud L et al. (2011) Aging Cell 10:39-54. Briefly, worms were observed using a Nikon SMZ1500 stereomicroscope (Nikon, Melville, NY, USA). Briefly, 10 L4 worms were transferred on plates containing NGM medium with vehicle (DMSO 0.1%, final concentration) or urolithin A dissolved in DMSO (final concentration 50 μM) and seeded with E. coli RNAi clones as indicated. After 3 days (corresponding to day 0), newly developed 60-100 L4 worms were used per condition, scored and transferred to fresh plates every 3 days starting from day 1 (young adult worms). All lifespan experiments were performed at 20° C.
Survival analyses were performed using the Kaplan Meier method and the significance of differences between survival curves calculated using the log rank test. Differences between two groups were assessed using two-tailed t-tests. Analysis of variance, assessed by Bonferroni's multiple comparison test, was used when comparing more than two groups. The statistical software used was GraphPad Prism 5 (GraphPad Software, Inc.) and all p-values <0.05 were considered significant.
Gene silencing was carried out as previously described by using the RNA interference (RNAi) process. Mouchiroud L et al. (2011) Aging Cell 10:39-54. In C. elegans, RNAi is made by feeding. […]

Another experiment concerns aged C57BL/6J mice. The experiment can be described thus: Grip test in aged mice. It counts as in vivo, mouse. The note with it: high fat diet, 50 mg/kg/day, 26 weeks, FIG. 22. How it is done: To examine the effects of urolithin A treatment on muscle function in aged mammals, 17-month-old C57BL/6J mice were treated with either a high fat rodent diet or a high fat rodent diet containing urolithin A mixed with food to reach a dosing of 50 mg/kg/day delivered to the mice.
Following 26 weeks of treatment with urolithin A, mice were assessed for their neuromuscular function by means of a grip test. Using the grip test, one can measure the forelimb grip strength of mice. Mice were placed on a grid to enable their fore paws grasp the support. To measure the grip strength, mice are pulled backward in the sensor axis until they are no longer able to hold the grid.

The test system of experiment [2] is aak-2(ok524) mutant C. elegans. It counts as in vivo. The conditions noted are these: aak-2 (o524); for Lifespan extension compared to control (%): 50 μM UA vs 1% DMSO. How it is done:
Lifespan assays were performed with (A) wild-type (N2), (B) sir-2.1(ok434) mutant, (C) aak-2(ok524), (D) daf-16(mu86), (E) eat-2(ad465) and (F) daf-2(e1370) mutant strains of C. elegans maintained during their full life on plates supplemented with either 50 μM of urolithin A or with a control treatment and seeded with OP50 bacteria. Control plates without urolithin A contained an equivalent concentration of DMSO. Worm lifespan assays were performed at 20° C.
aak-2/AMPK: aak-2 encodes the mammalian homolog of the AMP-dependent kinase AMPK in C. elegans.

The test system of the next experiment is liver of C57BL/6J mice. The experiment can be described thus: Autophagy in liver of mice after oral urolithin A. The conditions noted are these: oral 55 mg/kg/d in chow, 8 weeks. It is filed as in vivo, mouse. How it is done:
To determine the ability of urolithin A to induce autophagy in vivo, healthy 10-week-old C57BL/6J mice were treated with either a standard rodent diet or a diet containing urolithin A mixed with food to reach a dosing of 55 mg/kg/day delivered to the mice. Following 8 weeks of treatment with urolithin A, mice were sacrificed and the liver of each animal was surgically isolated. The isolated livers were then placed in lysis buffer and prepared for western blot analysis.
Protein expression levels were examined for autophagy related proteins LC3-I and LC3-II (Cell Signaling antibody #4108), p62 (Cell Signalling antibody #5114), AMPKα (Cell Signaling antibody #2603), and p-AMPKα(Cell Signaling antibody #2531). The housekeeping protein, HSP90 (BD Transduction Laboratories antibody #610418) level was measured as a loading control. Each lane in the Western blot represents a protein sample for the liver of a single mouse, to permit observation of the effects aver a number of treated animals.

Entries after “also recorded” stand apart in the source; their conditions may differ. Where two headings read alike, the source gives them in different places.

Take `O=c1oc2cc(O)ccc2c2ccc(O)cc12` [Urolithin A, urolithin A]: the “levels of p62” value in the experiment with ModeK cells is recorded as “decreased”. For the same compound, the “ratio of LC3-II/LC3-I vs vehicle-treated cells” value in the experiment with ModeK cells (FIG. 14) was no more than 10 fold. In addition, the “lifespan extension by urolithin A under vps-34 RNAi” value in experiment [1] is “suppressed; also recorded: totally suppress the lifespan phenotype”. The forelimb grip strength result with aged C57BL/6J mice was “greater grip strength”. Moreover, in experiment [2] (50 μM UA), the “Median lifespan” value was found to be 18 days. In addition, the “Lifespan extension compared to control (%)” value in experiment [2] is recorded as 12.5%; in experiment [2] (listed as UA), “+12.5%”. Besides, the p62 protein levels entry in the experiment on liver of C57BL/6J mice is reported as “decreased”. The “phosphorylated AMPKα / ratio of p-AMPKα/AMPKα” value in the experiment on liver of C57BL/6J mice (55 mg/kg/day) is given as “increased levels”. In the experiment on liver of C57BL/6J mice (FIG. 19, 55 mg/kg/day), the “ratio of LC3-II to LC3-I” value is reported as “increased”. Further, the “increase in autophagy over control untreated mice based on the ratio of LC3-II/LC3-I” value in the experiment on liver of C57BL/6J mice (average) is reported as “approximately 400%”.

(Values after patent US11931335B2, “Enhancing autophagy or increasing longevity by administration of urolithins or precursors thereof” (Amazentis SA, priority 2012, dated 2024).)
